From patent publication EP0503079A1, “PYRIDAZINONE-SUBSTITUTED ETHYNYLPHENYL DERIVATIVE AND REMEDY FOR CIRCULATORY ORGAN DISEASE CONTAINING THE SAME AS ACTIVE INGREDIENT” (KAKEN PHARMACEUTICAL CO., LTD., priority 1990, dated 1992)

Columns and labels:
Slc: ddy male mice [1] = test: Acute toxicity; assay type: in vivo; settings: oral administration, death rate after 7 days
Procedure: (§1) In each group, 6 Slc: ddy male mice weighing 25 to 29 g (6 weeks) were employed. Each compound was administered orally thereto and a value of acute toxicity was evaluated with death rate after 7 days.

platelet aggregation = test: Inhibitory activity on platelet aggregation (turbidimetry); assay type: cell-based, New Zealand White male rabbits; settings: for Inhibition rate (%) ADP aggregation: 0.6 µg/mℓ ADP; for Inhibition rate (%) PAF aggregation: 5 x 10⁻⁹M PAF; for Inhibition rate (%) Collagen aggregation: 2 µg/mℓ collagen
Procedure: Blood was exsanguinated from New Zealand White male rabbits weighing from 2.5 to 3.0 kg and subjected to the test. Each test compound was dissolved in ethanol and prepared to be 1 x 10⁻⁵, 1 x 10⁻⁶ or 1 x 10⁻⁷M respectively. Each aggregation response was measured by turbidimetry. Concentration of aggregating agent was 2 µg/mℓ of collagen, 0.6 µg/mℓ of adenosine 5'-diphosphate (ADP) or 5 x 10⁻⁹M of platelet aggregating factor (PAF).
(§2) Inhibition rate was calculated by the following formula. [formula]

Slc-ddy male mice = test: Activity on hypoxia induced in decapitation of mice (gasping time); assay type: in vivo; set-up: dose or concentration left out as unconfirmed; settings: gasping time after decapitation, one hour after oral administration
Procedure: In each group, 3 Slc-ddy male mice (4 weeks) were employed. Each test compound was suspended or dissolved in a 0.5 % methyl cellulose solution. After the concentration was adjusted, the dose became […], the solution was administered orally. One hour after the administration, mice were decapitated and gasping time was measured.
as §2

Slc: ddy male mice [2] = test: Activity on stress ulcers (restraint and water immersion); assay type: in vivo; settings: length of ulcer in glandular stomach; 30 mg/kg orally; restrained and immersed in water of 23°C for 7 hours
Procedure: In each group, 5 Slc: ddy male mice (6 weeks) were employed. Each test compound was kneaded with Tween-80 followed by adding a 0.5 % solution of gum arabic to prepare 30 mg/10 mℓ solution (solution containing 1.5 % Tween-80 and 0.5 % gum arabic). Then, the preparation was administered orally in a rate of 30 mg/kg. After the administration, the mice were restrained and immersed in a water tank of 23°C for 7 hours. Then, length of the ulcer in the glandular stomach was measured by a stereoscopic microscope (x 10).

[3] = system: Aortae abdominalis of male Wister rats; test: Anti-norepinephrine activity on rat abdominal aorta strip preparations (auto-Magnus apparatus); settings: tension by norepinephrine (10⁻⁷M) regarded as 100
Procedure: Aortae abdominalis of male Wister rats (8-12 weeks) were delivered and cut in spiral-shape to be strip preparations. Each test compounds was disolved in DMSO. Then, the solution was diluted with distilled water and prepared to be desired concentration. Using an auto-Magnus apparatus, as to the vasoconstriction after adding norepinephrine, contractive forces were measured under the existence of the test compounds.

Acute toxicity = assay type: in vivo, mice; settings: mouse, in vivo; oral administration, death rate after 7 days; read-out: LD₅₀
Procedure: as §1

Molecule | LD₅₀ (Slc: ddy male mice [1]) [mg/kg] | Inhibition rate (%) ADP aggregation (platelet aggregation; compound 10⁻⁵ M) [%] | Inhibition rate (%) PAF aggregation (platelet aggregation; compound 10⁻⁵ M) [%] | Inhibition rate (%) ADP aggregation (platelet aggregation; compound 10⁻⁶ M) [%] | Inhibition rate (%) Collagen aggregation (platelet aggregation; compound 10⁻⁶ M) [%] | Inhibition rate (%) ADP aggregation (platelet aggregation; compound 10⁻⁷ M) [%] | Inhibition rate (%) Collagen aggregation (platelet aggregation; compound 10⁻⁷ M) [%] | Inhibition rate (%) (Slc-ddy male mice) | Inhibition rate (%) (Slc: ddy male mice [2]) | Contractive force ([3]; compound 10⁻⁷ M) | Contractive force ([3]; compound 10⁻⁸ M) | Contractive force ([3]; compound 10⁻⁹ M) | LD50 at 168 h (Acute toxicity) [mg/kg]
2,6-dimethyl-4-(3-ethynylphenyl)-3-methoxycarbonyl-5-{4-(6-oxo-1,4,5,6-tetrahydropyridazinon-3-yl)phenyl}aminocarbonyl-1,4-dihydropyridine [Compound 1] | 1000 | 94 | 64 | 70 | 94 | 21 | 21 | 28.6 | 83.0 | 15.7 | 87.4 | 102.8 | –
2,6-dimethyl-4-{3-(3-hydroxy-3-methyl)-1-butyn-1-yl)}phenyl-3-methoxycarbonyl-5-{4-(6-oxo-1,4,5,6-tetrahydropyridazinon-3-yl)phenyl}aminocarbonyl-1,4-dihydropyridine [Compound 7] | 800 | 89 | 40 | 73 | 92 | 24 | 25 | 19.1 | 88.8 | 16.3 | 89.2 | 100.3 | –
2,6-dimethyl-4-{3-(4-hydroxy-1-butyn-1-yl)}phenyl-3-methoxycarbonyl-5-{4-(6-oxo-1,4,5,6-tetrahydropyridazinon-3-yl)phenyl}aminocarbonyl-1,4-dihydropyridine [Compound 6] | 950 | 93 | 69 | 68 | 93 | 22 | 22 | 21.5 | – | 10.8 | 70.2 | 90.5 | –
CCOC(=O)C1=C(C)NC(C)=C(C(=O)Nc2ccc(C3=NNC(=O)CC3)cc2)C1c1cc(C#CC(C)(C)O)ccc1OC (centres unmarked) [Compound 17, 2,6-dimethyl-4-{3-(3-hydroxy-3-methyl)-1-butyn-1-yl-6-methoxy}phenyl-3-ethoxycarbonyl-5-{4-(6-oxo-1,4,5,6-tetrahydropyridazinon-3-yl)phenyl}aminocarbonyl-1,4-dihydropyridine] | – | 82 | 49 | 62 | 100 | 18 | 30 | 25.8 | 79.3 | 8.9 | 70.1 | 87.7 | 1000
C#Cc1cccc(C2C(C(=O)Nc3ccc(C4=NNC(=O)CC4CC)cc3)=C(C)NC(N)=C2C(=O)OCCOC)c1 (centres unmarked) [Compound 25, 2-amino-4-(3-ethynylphenyl)-3-methoxyethoxycarbonyl-6-methyl-5-{4-(4-ethyl-6-oxo-1,4,5,6-tetrahydropyridazinon-3-yl)phenyl}aminocarbonyl-1,4-dihydropyridine] | – | 90 | 62 | 69 | 91 | 29 | 30 | 28.3 | 94.3 | 12.1 | 70.9 | 91.5 | 1000
